Data as given in patent US9168247B2, “Beta carboline derivatives useful in the treatment of proliferative disorders” (FACULTES UNIVERSITAIRES NOTRE DAME DE LA PAIX, priority 2010, dated 2015).
Like-named read-outs stand apart in the source and are kept apart here.

Key:
[1] = tested on: OE33 oesophageal cancer cells; assay: MTT test, overall cell growth, OE33; format: cell-based, human
In short: (§1)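 Glioma (Hs683, T98G, U373) and oesophageal (OE21, OE33) lines seeded at 5,000–8,000 cells/well, treated 24 h later with compound at 1×10^−8 to 1×10^−4 M for 72 h at 37 °C, in sestuplicate.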

[2] = tested on: OE21 oesophageal cancer cells; assay: MTT test, overall cell growth, OE21; format: cell-based, human
In short: as §1

T98G glioma cells = assay: MTT test, overall cell growth, T98G; format: cell-based, human; settings: 72 hours of incubation
In short: as §1

[3] = tested on: human cancer cell lines (U373, T98G, Hs683, OE21, OE33); assay: MTT test, mean over the cancer cell lines; format: cell-based
In short: as §1

U373 glioma cells = assay: MTT test, overall cell growth, U373; format: cell-based, human; settings: 72 hours of incubation
In short: as §1

U373 cells = assay: Cellular imaging (videomicroscopy) of cultured U373 cells: antiproliferative class and global growth ratio; format: cell-based, human; design: key to Anti proliferative class / anti-proliferative class-GGR: class I: actually cytostatic for 3 days (<10% of cell death at the 3rd day); class II: cyctostatic but becomes cytotoxic with <10% cell death on the 2nd day, and >20% of cell death on the 3rd day; class III: cytostatic but rapidly becomes cytotoxic with <10% cell death on the 1st day, >20% of cell death on the 2nd day and >50% of cell death on the 3rd day; class IV: cytotoxic (>50% of cell death on the first day); settings: for global growth ratio (GGR): GG treated cells/GG control cells, 72 h after drug addition, drug at its IC50 (MTT-test determined); for anti-proliferative class-GGR: Table 4; for Anti proliferative class: cellular imaging of cultured U373 cells over three consecutive days
In short: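 U373-MG glioma cells seeded at low density, exposed or not to compound […], filmed by videomicroscopy for 72 h, in quadruplicate. Cells counted on first (0 h) and last (72 h) images; GGR = final/initial count, reported as GGR treated/GGR control.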

Hs683 glioma cells = assay: MTT test, overall cell growth, Hs683; format: cell-based, human
In short: as §1

[4] = Homo sapiens, OE33, 72 hours of incubation
[5] = Homo sapiens, OE21, 72 hours of incubation
[6] = Homo sapiens, Table 4, mean over cell lines, read-out: IC50 μM growth inhibition (MTT test)
[7] = Homo sapiens, mean over the cancer cell lines, MTT test, read-out: IC50 Mean ± SEM
[8] = Homo sapiens, Hs 683, 72 hours of incubation
[9] = Table 4, mean over cell lines, read-out: IC50 μM growth inhibition (MTT test)
[10] = mean over the cancer cell lines, MTT test, read-out: IC50 Mean ± SEM

Cc1nccc2c3ccc(OCc4ccccc4)cc3n(Cc3ccccc3)c12 [CV9/JR84, 1-methyl-7-benzyloxy-9-benzyl-β-carboline]
IC50 [1, 4]: 40 ± 4 µM | IC50 [2, 5]: 28 ± 3 µM | IC50 (T98G glioma cells; Homo sapiens, T98G): 36 ± 2 µM | IC50 [3, 6]: 31 µM | IC50 [3, 7]: 31 ± 4 µM | IC50 (U373 glioma cells; Homo sapiens, U373 MG): 18 ± 2 µM | global growth ratio (GGR) (U373 cells): 0.3 | anti-proliferative class-GGR (U373 cells): (II) | Anti proliferative class (U373 cells): II | IC50 (Hs683 glioma cells; [8]): 33 ± 1 µM

Cc1c2c(cc[n+]1Cc1ccccc1)c1ccc(OCc3ccccc3)cc1n2Cc1ccccc1.[Br-] [CV21/JR95, 1-methyl-2-benzyl-7-benzyloxy-9-benzyl-β-carbolin-2-ium bromide]
IC50 [1, 4]: 0.7 ± 0.1 µM | IC50 [2, 5]: 1.3 ± 0.2 µM | IC50 (T98G glioma cells; Homo sapiens, T98G): 0.48 ± 0.02 µM | IC50 [3, 6]: 0.7 µM | IC50 [3, 7]: 0.7 ± 0.2 µM | IC50 (U373 glioma cells; Homo sapiens, U373 MG): 0.44 ± 0.01 µM | global growth ratio (GGR) (U373 cells): 0.4 | anti-proliferative class-GGR (U373 cells): (I) (class I: actually cytostatic for 3 days (<10% of cell death at the 3rd day)) | Anti proliferative class (U373 cells): I (class I: actually cytostatic for 3 days (<10% of cell death at the 3rd day)) | IC50 (Hs683 glioma cells; [8]): 0.49 ± 0.05 µM

Cc1nccc2c1[nH]c1cc(OCc3cccnc3)ccc12 [JR212]
IC50 ([1]; 72 hours of incubation): 31 ± 2 µM | IC50 ([2]; 72 hours of incubation): 28 ± 2 µM | IC50 (T98G glioma cells): 29 ± 2 µM | IC50 [3, 9]: 29 µM | IC50 [3, 10]: 29 ± 1 µM | IC50 (U373 glioma cells): 24 ± 1 µM | global growth ratio (GGR) (U373 cells): 0.3 | anti-proliferative class-GGR (U373 cells): (I) (class I: actually cytostatic for 3 days (<10% of cell death at the 3rd day)) | Anti proliferative class (U373 cells): I (class I: actually cytostatic for 3 days (<10% of cell death at the 3rd day)) | IC50 (Hs683 glioma cells; 72 hours of incubation): 30 ± 3 µM

COCCOc1ccc2c(c1)[nH]c1c(C)nccc12 [JR220]
IC50 ([1]; 72 hours of incubation): 66 ± 3 µM | IC50 ([2]; 72 hours of incubation): 53 ± 4 µM | IC50 (T98G glioma cells): 61 ± 7 µM | IC50 [3, 9]: 60 µM | IC50 [3, 10]: 60 ± 3 µM | IC50 (U373 glioma cells): 64 ± 4 µM | global growth ratio (GGR) (U373 cells): 0.2 | anti-proliferative class-GGR (U373 cells): (I) (class I: actually cytostatic for 3 days (<10% of cell death at the 3rd day)) | Anti proliferative class (U373 cells): I (class I: actually cytostatic for 3 days (<10% of cell death at the 3rd day)) | IC50 (Hs683 glioma cells; 72 hours of incubation): 53 ± 6 µM
